Measured values from ChEMBL document CHEMBL1201862, “PubChem BioAssay data set” (2004).
Active and inactive are the calls of the source.

Tests used:
[1] = biological target: Cytochrome P450 2C9 (Homo sapiens, UniProt P11712)
[2] = viability of HCT116 lacking mutant beta-catenin – cell-based, human colon tumor, dose response (AID 1045); format: functional;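 also: HCT116 colon tumor cells with beta catenin knocked out; cells exposed to compound for 60 hours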
[3] = viability of PTEN-deleted HCT116 cells – cell-based, HCT116 PTEN knockout, dose response (AID 1047); format: functional;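 also: HCT116 colon tumor cells with PTEN knocked out; cells exposed to compound for 60 hours before readout; potency for loss of cell viability measured by luminescence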
[4] = biological target: Large T antigen (Simian virus 40, UniProt P03070); format: functional, Betapolyomavirus macacae;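 also: Confirmatory-stage PubChem screen for compounds that inhibit SV40 T antigen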
Chain of Large T antigen (P03070 whole entry): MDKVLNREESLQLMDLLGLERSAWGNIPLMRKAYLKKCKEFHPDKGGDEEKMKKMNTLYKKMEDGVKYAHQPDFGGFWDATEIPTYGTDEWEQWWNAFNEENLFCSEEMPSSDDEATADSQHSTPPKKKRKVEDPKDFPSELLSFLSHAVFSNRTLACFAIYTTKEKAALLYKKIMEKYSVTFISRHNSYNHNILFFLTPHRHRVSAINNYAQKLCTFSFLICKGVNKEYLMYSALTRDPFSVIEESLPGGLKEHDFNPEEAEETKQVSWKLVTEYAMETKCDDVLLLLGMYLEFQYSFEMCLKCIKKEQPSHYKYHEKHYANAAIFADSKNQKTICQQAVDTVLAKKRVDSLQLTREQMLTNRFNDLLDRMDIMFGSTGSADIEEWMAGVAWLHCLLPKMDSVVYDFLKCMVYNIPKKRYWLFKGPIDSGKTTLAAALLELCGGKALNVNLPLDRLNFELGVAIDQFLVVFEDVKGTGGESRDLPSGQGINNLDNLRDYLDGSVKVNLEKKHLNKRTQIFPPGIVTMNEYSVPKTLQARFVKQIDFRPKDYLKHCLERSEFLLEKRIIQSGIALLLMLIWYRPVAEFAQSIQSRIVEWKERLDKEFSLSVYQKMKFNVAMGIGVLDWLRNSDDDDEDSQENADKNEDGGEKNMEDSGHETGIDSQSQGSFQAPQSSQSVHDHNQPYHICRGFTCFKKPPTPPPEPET

[5] = tested on: H9c2; test: cells; format: functional, cell-based; conditions: Rattus norvegicus, H9c2, Myocardium;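 also: confirmatory concentration-response retest of ultra-high-throughput screening hits for modulation of myocardial damage; cell death induced by hydrogen peroxide oxidative stress; compound pretreatment for 60 min then peroxide exposure for 2 h; potency is for protecting the cells against peroxide damage rather than for killing them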
[6] = tested on: Vero; test: cells; format: functional; conditions: Chlorocebus sabaeus
[7] = biological target: T1, Ubiquitin-conjugating enzyme E2 N (Homo sapiens, UniProt P61088); format: functional;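 also: Dose-response confirmation in a TR-FRET assay detecting UBC13-driven polyubiquitin chain formation, inhibition measured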
T1 sequence (P61088 whole entry): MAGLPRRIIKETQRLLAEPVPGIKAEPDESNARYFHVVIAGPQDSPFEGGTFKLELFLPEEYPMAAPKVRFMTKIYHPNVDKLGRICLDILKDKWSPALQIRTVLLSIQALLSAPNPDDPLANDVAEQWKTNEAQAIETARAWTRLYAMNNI

[8] = biological target: FAD-linked sulfhydryl oxidase ALR (Homo sapiens, UniProt P55789); test: ALR-catalysed DTT oxidation blockers – biochemical, H2O2 detection, luminescence, cherry-pick, dose response (AID 493248)
Chain of FAD-linked sulfhydryl oxidase ALR (P55789 whole entry): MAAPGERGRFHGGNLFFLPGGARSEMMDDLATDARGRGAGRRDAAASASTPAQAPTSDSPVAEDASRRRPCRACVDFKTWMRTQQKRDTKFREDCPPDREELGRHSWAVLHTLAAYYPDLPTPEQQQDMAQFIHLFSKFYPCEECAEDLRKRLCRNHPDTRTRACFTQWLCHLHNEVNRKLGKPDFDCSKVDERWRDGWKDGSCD

[9] = Luminescence Cell-Based Dose Retest to Confirm Inhibitors of Cancer Stem Cells. [Related pubchem assays (depositor defined):AID2717, AID2721]; format: functional; conditions: Homo sapiens
[10] = tested on: INS1; test: INS-1E survival protection against cytokine death – cell-based, luminescence, retest, dose response (AID 449756); format: functional; conditions: Rattus norvegicus;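 also: cell death triggered by IL-1 beta plus TNF-alpha plus IFN-gamma mixture; protective hits raise ATP signal compared with cytokine alone wells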
[11] = biological target: T2, Rac GTPase-activating protein 1 (Homo sapiens, UniProt Q9H0H5); test: blockers of MgcRacGAP-driven Rac1 GTP hydrolysis – biochemical, ADP Hunter fluorescence, primary and confirmatory, confirmation (AID 624330); format: functional
T2 sequence (Q9H0H5 whole entry): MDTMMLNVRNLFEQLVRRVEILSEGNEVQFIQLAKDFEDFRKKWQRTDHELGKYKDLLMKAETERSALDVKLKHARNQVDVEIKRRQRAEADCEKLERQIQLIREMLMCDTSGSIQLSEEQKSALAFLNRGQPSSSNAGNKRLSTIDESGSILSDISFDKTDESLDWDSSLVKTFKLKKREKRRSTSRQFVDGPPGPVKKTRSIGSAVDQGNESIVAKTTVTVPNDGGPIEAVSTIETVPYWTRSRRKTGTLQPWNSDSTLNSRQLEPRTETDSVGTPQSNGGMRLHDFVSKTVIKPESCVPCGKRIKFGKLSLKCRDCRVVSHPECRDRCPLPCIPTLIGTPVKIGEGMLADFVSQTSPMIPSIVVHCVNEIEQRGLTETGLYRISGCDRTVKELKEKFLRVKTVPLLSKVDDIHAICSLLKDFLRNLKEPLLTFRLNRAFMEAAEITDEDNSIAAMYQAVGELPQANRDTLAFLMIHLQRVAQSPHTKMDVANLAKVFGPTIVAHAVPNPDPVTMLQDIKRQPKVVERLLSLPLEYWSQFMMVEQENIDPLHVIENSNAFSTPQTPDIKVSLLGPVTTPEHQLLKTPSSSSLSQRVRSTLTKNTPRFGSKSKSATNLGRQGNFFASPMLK

[12] = biological target: T3, Polyadenylate-binding protein 1 (Homo sapiens, UniProt P11940); test: MLLE domain peptide-binding blockers, IC50 – biochemical, fluorescence polarization, FITC-PAM2 peptide, dose response (AID 602259); format: functional; conditions: read-out: IC50_Mean
T3 sequence (P11940 whole entry, the tested form may be a part): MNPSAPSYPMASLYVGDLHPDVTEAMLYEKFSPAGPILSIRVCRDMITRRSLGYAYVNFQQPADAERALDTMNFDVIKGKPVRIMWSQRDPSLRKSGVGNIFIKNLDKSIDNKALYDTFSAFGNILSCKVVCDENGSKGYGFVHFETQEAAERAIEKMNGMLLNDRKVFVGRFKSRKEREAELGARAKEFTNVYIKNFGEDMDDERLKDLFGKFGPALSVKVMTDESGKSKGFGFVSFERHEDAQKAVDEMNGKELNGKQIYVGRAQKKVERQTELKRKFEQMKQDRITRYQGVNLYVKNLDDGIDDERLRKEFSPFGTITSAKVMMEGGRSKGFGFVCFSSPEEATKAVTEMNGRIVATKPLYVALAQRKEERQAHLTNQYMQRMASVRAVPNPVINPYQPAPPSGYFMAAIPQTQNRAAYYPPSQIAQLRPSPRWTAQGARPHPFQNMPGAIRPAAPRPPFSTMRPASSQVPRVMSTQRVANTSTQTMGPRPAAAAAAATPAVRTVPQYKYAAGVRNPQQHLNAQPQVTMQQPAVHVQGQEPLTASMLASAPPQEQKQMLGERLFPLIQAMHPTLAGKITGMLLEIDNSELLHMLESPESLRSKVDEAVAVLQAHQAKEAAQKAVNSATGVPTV

[13] = biological target: T3, Polyadenylate-binding protein 1; test: MLLE binding blockers, Cy5 peptide tracer – biochemical, fluorescence polarization, Cy5-PAM2 peptide, secondary, miRNA deadenylation inhibitor project, dose response (AID 602260); format: functional; conditions: read-out: IC50_Mean
[14] = cells; format: functional
[15] = biological target: T4, Heat shock factor protein 1 (Mus musculus, UniProt P38532); test: enhancement of HSF1-driven luciferase signal – cell-based, NIH3T3, luminescence, dose retest, confirmation (AID 435004); format: functional;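 also: stress induced by proteasome inhibitor MG132 added 30 min after compound; luciferase reporter driven by HSF1 response element in NIH3T3 cells; actives raise luminescence as potentiators of the MG132 stress response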
T4 sequence (P38532 whole entry): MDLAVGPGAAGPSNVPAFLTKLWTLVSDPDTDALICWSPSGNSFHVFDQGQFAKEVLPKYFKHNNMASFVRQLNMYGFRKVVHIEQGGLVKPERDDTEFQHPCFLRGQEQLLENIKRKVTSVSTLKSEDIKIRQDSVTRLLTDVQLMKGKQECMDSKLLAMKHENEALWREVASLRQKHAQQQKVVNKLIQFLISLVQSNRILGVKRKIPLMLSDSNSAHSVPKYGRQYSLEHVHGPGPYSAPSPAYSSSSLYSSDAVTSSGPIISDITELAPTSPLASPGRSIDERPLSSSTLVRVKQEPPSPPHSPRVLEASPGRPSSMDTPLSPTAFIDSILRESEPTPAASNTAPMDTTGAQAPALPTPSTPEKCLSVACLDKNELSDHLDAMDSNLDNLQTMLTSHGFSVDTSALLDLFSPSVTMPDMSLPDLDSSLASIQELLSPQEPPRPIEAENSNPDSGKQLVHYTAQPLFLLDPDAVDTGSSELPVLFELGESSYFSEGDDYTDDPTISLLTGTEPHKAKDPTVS

[16] = biological target: T4, Heat shock factor protein 1; test: decrease of HSF1-responsive luciferase luminescence – cell-based, NIH3T3, dose retest, confirmation (AID 2382); format: functional;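 also: NIH3T3 fibroblasts with HSF1-driven luciferase reporter stressed by proteasome inhibitor MG132; luminescence from HSF1-driven luciferase expression after 8 hours of MG132 stress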

Chain of Cytochrome P450 2C9 (P11712 whole entry): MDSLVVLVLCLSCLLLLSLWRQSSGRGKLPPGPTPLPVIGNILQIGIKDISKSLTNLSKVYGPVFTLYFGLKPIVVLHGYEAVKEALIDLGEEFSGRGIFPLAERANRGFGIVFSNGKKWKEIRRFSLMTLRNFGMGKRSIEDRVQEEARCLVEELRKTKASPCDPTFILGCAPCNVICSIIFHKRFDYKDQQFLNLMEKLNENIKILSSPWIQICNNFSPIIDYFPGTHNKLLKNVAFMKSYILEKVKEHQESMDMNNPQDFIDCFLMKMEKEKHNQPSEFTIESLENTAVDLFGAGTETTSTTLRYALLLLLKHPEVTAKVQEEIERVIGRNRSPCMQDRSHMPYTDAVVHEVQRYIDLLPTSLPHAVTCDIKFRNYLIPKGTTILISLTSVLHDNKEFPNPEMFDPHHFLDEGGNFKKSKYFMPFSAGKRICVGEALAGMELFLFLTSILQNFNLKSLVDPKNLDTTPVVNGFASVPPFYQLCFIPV

## COc1ccc(C(=O)COC(=O)c2ccc(NC(=O)c3ccccc3)cc2)cc1
[1]
  AC50: 1.41 µM (inconclusive)
[2]
  EC50: 49.9 µM (active)
[3]
  EC50: 41.1 µM (active)

## Nc1ccc2[nH]c(-c3cccs3)nc2c1
[4]
  IC50: 11.9 µM (active)
[5]
  IC50: 15.5 µM (active)

## O=C1/C(=C/c2ccccc2F)SC(=S)N1CCC(=O)N1CCCCC1CCO (stereo not given)
[6]
  CC50: 25 µM (active)

## CCC(C)[C@H]1CNCCN1CCc1cc(C(F)(F)F)cc(C(F)(F)F)c1 (stereo not given in full)
[7]
  IC50: > 20 µM (inactive)

## CCc1ccc(/C=N/NC(=O)Cc2cccn2C)cc1
[8]
  AC50: 13.4 µM (active)

## Cc1cc2nc(NCCCO)n(CC(=O)c3cc(C(C)(C)C)c(O)c(C(C)(C)C)c3)c2cc1C
[9]
  AC50: 3.14 µM (active)
[10]
  AC50: 8.03 µM (active)
[7]
  IC50: > 20 µM (inactive)

## COc1ccc(OC(=O)COc2cc(C)ccc2C)cc1
[11]
  IC50: 37.7 µM (active)

## CN(C)/N=C/c1ccc(N2CCOCC2)cc1
[11]
  IC50: 51.2 µM (active)

## Nc1nc(-c2ccco2)cs1
[4]
  IC50: 79.2 µM (active)

## COC(=O)C1=C(C)N(CCc2ccc(OC)cc2)C(=O)C1
[5]
  IC50: > 79 µM (inactive)

## O=P1(c2ccccc2)Nc2ccccc2N1c1ccccc1 (stereo not given)
[11]
  IC50: 28.8 µM (active)

## CCC(=O)Nc1ccc(SC#N)cc1C
[12]
  IC50: > 66 µM (inactive)
[8]
  AC50: 0.497 µM (active)
[13]
  IC50: > 66 µM (inactive)

## CCCCC(=O)Nc1ccc2c3c(cccc13)C(=O)N2CC
[7]
  IC50: > 20 µM (inactive)

## CCC(/C=C1\Sc2ccc(OC)cc2N1CCCS(=O)(=O)[O-])=C\c1sc2ccc(OC)cc2[n+]1CC
[8]
  AC50: 8.75 µM (active)
[10]
  AC50: 3.3 µM (active)

## CC(=O)Nc1ccc(NC(=O)C(C)OC(=O)COc2ccc(Nc3ccccc3)cc2)cc1 (stereo not given)
[11]
  IC50: 111 µM (active)

## CCCc1cc(C(=O)Nc2ccccc2SC)no1
[14]
  IC50: 10.5 µM (active)

## CCOc1cc2c(cc1O)C(=NOC)CC1C2CCC2(C)C(O)CCC12 (stereo not given)
[6]
  CC50: 5.94 µM (active)

## COc1ccc(NC(=O)N(C)C[C@H]2Oc3c(NC(=O)Nc4ccc(C(F)(F)F)cc4)cccc3C(=O)N([C@H](C)CO)C[C@@H]2C)cc1
[5]
  IC50: > 79 µM (inactive)

## COc1ccccc1NS(=O)(=O)c1ccc(C)c(C(=O)N2CCN(c3ccc(O)cc3)CC2)c1
[8]
  AC50: 0.022 µM (active)
[11]
  IC50: 24.2 µM (active)

## Cc1ccc(Nc2c(N)c(=O)oc3ccccc23)cc1
[15]
  EC50: > 260 µM (inactive)
[2]
  EC50: 12.3 µM (active)
[3]
  EC50: 13.6 µM (active)

## CN(C)c1ccc(NC(=O)CC2NCCNC2=O)cc1 (stereo not given)
[4]
  IC50: 10.1 µM (active)

## CCn1c(S)nnc1-c1ccc2[nH]c(C)c(C)c2c1
[16]
  EC50: > 195 µM (not active)
[8]
  AC50: 2.49 µM (active)

## O=C(c1ccco1)N1CCN(Cc2cccc([N+](=O)[O-])c2)CC1
[11]
  IC50: 127 µM (active)

## O=C(Nc1ccc(Cl)c(Cl)c1)Oc1ccc(NC(=O)c2ccco2)cc1
[4]
  IC50: > 100 µM (active)

## O=C(Oc1ccc2c(-c3ccccc3)cc(=O)oc2c1)C1CCCCC1
[5]
  IC50: 34.3 µM (inactive)

## CC(=O)Oc1c(-c2ccco2)oc2ccccc2c1=O
[14]
  IC50: 23.2 µM (active)

## Nc1nc2ccc(-c3nc4ccccc4o3)cc2s1
[8]
  AC50: 2.44 µM (active)

## COc1ccc(S(=O)(=O)N/N=C(/C)c2ccncc2)c(OC)c1
[8]
  AC50: 0.832 µM (active)
